According to patent US20140213513A1 (Sanofi, priority 2012, published 2014):
*1 amine or outer side, *2 acyl side, *3 side chain or, on linkers, in order; H or OH if unused. Where a SMILES comes first, the peptide text is derived from it. Side-chain parts run from the residue outwards. [ ]: non-standard residue; d: D form. The star is where a group is joined. γGlu = O=C(O)[C@H](CCC(=O)[*:2])N[*:1]; Palmitoyl = CCCCCCCCCCCCCCCC(=O)*; Aib = CC(C)(N)C(=O)O

How the values were obtained:
Assay type in all cases: cell-based
Conditions in all cases: Table 7; cAMP formation
[1] = target: T1, human GIP receptor (hGIP R) (Homo sapiens, UniProt P48546); test: cAMP response of HEK-293 cells stably expressing human GIP receptor (HTRF)
T1 construct: expressed in transfected cells
T1 sequence (P48546 22-466): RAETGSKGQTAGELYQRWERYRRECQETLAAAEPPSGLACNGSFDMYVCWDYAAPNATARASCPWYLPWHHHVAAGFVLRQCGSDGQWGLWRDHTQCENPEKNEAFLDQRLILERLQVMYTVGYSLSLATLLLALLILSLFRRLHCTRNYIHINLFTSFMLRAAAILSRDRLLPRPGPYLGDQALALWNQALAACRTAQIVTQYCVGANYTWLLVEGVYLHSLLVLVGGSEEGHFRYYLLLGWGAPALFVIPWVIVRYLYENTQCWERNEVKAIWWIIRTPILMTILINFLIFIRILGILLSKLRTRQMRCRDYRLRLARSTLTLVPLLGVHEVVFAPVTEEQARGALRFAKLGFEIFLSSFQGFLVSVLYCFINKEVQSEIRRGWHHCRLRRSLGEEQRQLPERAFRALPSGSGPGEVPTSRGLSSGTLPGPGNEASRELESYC
Experimental: (§1) cAMP content of cells was determined using a kit from Cisbio Corp. (cat. no. 62AM4PEC) based on HTRF (Homogenous Time Resolved Fluorescence). For preparation, cells were split into T175 culture flasks and grown overnight to near confluency in medium (DMEM/10% FBS). Medium was then removed and cells washed with PBS lacking calcium and magnesium, followed by proteinase treatment with accutase (Sigma-Aldrich cat. no. A6964). Detached cells were washed and resuspended in assay buffer (1×HBSS; 20 mM HEPES, 0.1% BSA, 2 mM IBMX) and cellular density determined. They were then diluted to 400000 cells/ml and 25 μl-aliquots dispensed into the wells of 96-well plates. For measurement, 25 μl of test compound in assay buffer was added to the wells, followed by incubation for 30 minutes at room temperature.

[2] = target: T2, human GLP-1 receptor (hGLP-1 R) (Homo sapiens, UniProt P43220); test: cAMP response of HEK-293 cells stably expressing human GLP-1 receptor (HTRF)
T2 construct: expressed in transfected cells
Experimental: as §1

[3] = target: T3, human glucagon receptor (hGLUC R) (Homo sapiens, UniProt P47871); test: cAMP response of HEK-293 cells stably expressing human glucagon receptor (HTRF)
T3 construct: expressed in transfected cells
Experimental: as §1

T2 sequence (P43220 24-463): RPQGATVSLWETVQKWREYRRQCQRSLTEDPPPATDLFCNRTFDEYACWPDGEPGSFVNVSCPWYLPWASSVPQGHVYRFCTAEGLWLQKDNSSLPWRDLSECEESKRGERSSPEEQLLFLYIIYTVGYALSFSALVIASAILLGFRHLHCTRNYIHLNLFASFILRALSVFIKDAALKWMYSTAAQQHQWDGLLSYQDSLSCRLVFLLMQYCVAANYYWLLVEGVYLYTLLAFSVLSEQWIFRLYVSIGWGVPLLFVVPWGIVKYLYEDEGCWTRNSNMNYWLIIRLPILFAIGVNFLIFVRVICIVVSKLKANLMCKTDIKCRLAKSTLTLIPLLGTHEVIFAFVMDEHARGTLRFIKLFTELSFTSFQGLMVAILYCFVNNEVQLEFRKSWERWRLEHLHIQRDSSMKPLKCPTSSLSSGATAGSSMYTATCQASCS
T3 sequence (P47871 26-477): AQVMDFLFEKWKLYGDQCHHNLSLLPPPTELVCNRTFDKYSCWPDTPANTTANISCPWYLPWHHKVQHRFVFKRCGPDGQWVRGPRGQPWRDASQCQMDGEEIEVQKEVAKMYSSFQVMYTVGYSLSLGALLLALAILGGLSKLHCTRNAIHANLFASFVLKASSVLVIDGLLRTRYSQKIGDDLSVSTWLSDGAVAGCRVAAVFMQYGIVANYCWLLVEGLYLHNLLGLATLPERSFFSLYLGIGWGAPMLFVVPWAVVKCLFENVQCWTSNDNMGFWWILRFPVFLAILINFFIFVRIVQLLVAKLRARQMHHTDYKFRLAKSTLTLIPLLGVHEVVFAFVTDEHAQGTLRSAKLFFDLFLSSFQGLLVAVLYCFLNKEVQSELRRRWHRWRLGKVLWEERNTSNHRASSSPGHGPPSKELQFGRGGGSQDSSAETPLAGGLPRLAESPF

Work on `CCCCCCCCCCCCCCCC(=O)N[C@@H](CCC(=O)NCCCC[C@H](NC(=O)[C@H](CCC(N)=O)NC(=O)[C@@H](NC(=O)[C@H](CO)NC(=O)[C@H](CC(C)C)NC(=O)[C@H](CC(=O)O)NC(=O)[C@H](CO)NC(=O)[C@@H](NC(=O)[C@H](Cc1ccccc1)NC(=O)[C@@H](NC(=O)CNC(=O)[C@H](CCC(N)=O)NC(=O)C(C)(C)NC(=O)[C@@H](N)Cc1ccc(O)cc1)[C@@H](C)O)[C@@H](C)O)[C@@H](C)CC)C(=O)N[C@@H](CCC(=O)O)C(=O)N[C@@H](CCCCN)C(=O)NC(C)(C)C(=O)N[C@@H](C)C(=O)N[C@@H](C)C(=O)NC(C)(C)C(=O)N[C@@H](CCC(=O)O)C(=O)N[C@@H](Cc1ccccc1)C(=O)N[C@H](C(=O)N[C@@H](CCC(=O)O)C(=O)N[C@@H](Cc1c[nH]c2ccccc12)C(=O)N[C@@H](CC(C)C)C(=O)N[C@@H](CCCCN)C(=O)N[C@@H](CC(N)=O)C(=O)N[C@H](C(=O)NCC(=O)N1CCC[C@H]1C(=O)N[C@@H](CO)C(=O)N[C@@H](CO)C(=O)NCC(=O)N[C@@H](C)C(=O)N1CCC[C@H]1C(=O)N1CCC[C@H]1C(=O)N1CCC[C@H]1C(=O)N[C@@H](CO)C(N)=O)[C@@H](C)O)[C@@H](C)CC)C(=O)O` [SEQ ID NO: 9, Y-Aib-Q-G-T-F-T-S-D-L-S-I-Q-K(yE-x53)-E-K-Aib-A-A-Aib-E-F-I-E-W-L-K-N-T-G-P-S-S-G-A-P-P-P-S-NH2] (H-Y[Aib]QGTFTSDLSIQK([γGlu-Palmitoyl])EK[Aib]AA[Aib]EFIEWLKNTGPSSGAPPPS-NH2) yielded an EC50 [1] of 0.009 nM, an EC50 [2] of 0.0055 nM and an EC50 [3] of 0.445 nM.

For `CCCCCCCCCCCCCCCC(=O)N[C@@H](CCC(=O)NCCCC[C@H](NC(=O)[C@H](CCC(N)=O)NC(=O)[C@@H](NC(=O)[C@H](CO)NC(=O)[C@H](CC(C)C)NC(=O)[C@H](CC(=O)O)NC(=O)[C@H](CO)NC(=O)[C@@H](NC(=O)[C@H](Cc1ccccc1)NC(=O)[C@@H](NC(=O)CNC(=O)[C@H](CCC(N)=O)NC(=O)C(C)(C)NC(=O)[C@@H](N)Cc1ccc(O)cc1)[C@@H](C)O)[C@@H](C)O)[C@@H](C)CC)C(=O)N[C@@H](CCC(=O)O)C(=O)N[C@@H](CCCCN)C(=O)N[C@@H](Cc1ccc(O)cc1)C(=O)N[C@@H](C)C(=O)N[C@@H](C)C(=O)NC(C)(C)C(=O)N[C@@H](CCC(=O)O)C(=O)N[C@@H](Cc1ccccc1)C(=O)N[C@H](C(=O)N[C@@H](CCC(=O)O)C(=O)N[C@@H](Cc1c[nH]c2ccccc12)C(=O)N[C@@H](CC(C)C)C(=O)N[C@@H](CCCCN)C(=O)N[C@@H](CC(N)=O)C(=O)N[C@H](C(=O)NCC(=O)N1CCC[C@H]1C(=O)N[C@@H](CO)C(=O)N[C@@H](CO)C(=O)NCC(=O)N[C@@H](C)C(=O)N1CCC[C@H]1C(=O)N1CCC[C@H]1C(=O)N1CCC[C@H]1C(=O)N[C@@H](CO)C(N)=O)[C@@H](C)O)[C@@H](C)CC)C(=O)O` [SEQ ID NO: 10, Y-Aib-Q-G-T-F-T-S-D-L-S-I-Q-K(yE-x53)-E-K-Y-A-A-Aib-E-F-I-E-W-L-K-N-T-G-P-S-S-G-A-P-P-P-S-NH2] (H-Y[Aib]QGTFTSDLSIQK([γGlu-Palmitoyl])EKYAA[Aib]EFIEWLKNTGPSSGAPPPS-NH2), the EC50 [1] was 0.0144 nM, the EC50 [2] was 0.0052 nM and the EC50 [3] was 0.667 nM.
